Laboratory results as given in ChEMBL document CHEMBL2010689 (J Med Chem, 2012).
Activity calls are given as the source filed them. The calls are words filed in the database; no cut-off is given here.

How the values were obtained:
P388 [1] = test: Antitumor activity against mouse P388 cells xenografted in DBA/2 mouse assessed as mean survival at 30 mg/kg, po bid (reference value: 14 days); type: functional
[2] = Apparent permeability across human Caco2 cells; type: ADME, cell-based; conditions: Caco-2
A-375 [3] = test: Antitumor activity against human A375 cells xenografted in athymic nude mouse assessed as complete tumor regression at 10 mg/kg, po bid; type: functional
A-375 [4] = test: Antitumor activity against human A375 cells xenografted in athymic nude mouse assessed as tumor growth inhibition at 1 mg/kg, po bid measured on day 29 relative to control; type: functional; conditions: A-375, 696 h, read-out: GI
Mus musculus [5] = test: Toxicity in athymic nude mouse bearing human A375 cells assessed as apparent toxicity at 0.1 to 10 mg/kg, po; type: organism-based, A-375; parameters: dose 0.1-10 mg/kg, route oral; conditions: in vivo
A-375 [6] = test: Antitumor activity against human A375 cells xenografted in athymic nude mouse assessed as complete tumor regression at 1 mg/kg, po bid; type: functional
[7] = target: Muscarinic acetylcholine receptor M4 (Homo sapiens) (UniProt P08173); conditions: 10 uM
Description: Inhibition of muscarinic M4 receptor at 10 uM

[8] = Antitumor activity against human U251MG cells xenografted in athymic nude mouse assessed as tumor growth inhibition at 3 mg/kg, po bid measured on day 29 relative to control; type: functional; conditions: U-251, 696 h, read-out: GI
[9] = Oral bioavailability in Sprague-Dawley rat at 5 mg/kg; type: ADME, organism-based; conditions: in vivo
[10] = target: Macrophage colony-stimulating factor 1 receptor (Homo sapiens, UniProt P07333); test: Inhibition of human FMS using ATP as substrate
[11] = target: Tyrosine-protein kinase BTK (Homo sapiens, UniProt Q06187); test: Inhibition of human BTK using ATP as substrate
[12] = target: Fibroblast growth factor receptor 3 (Homo sapiens, UniProt P22607); test: Inhibition of human FGFR3 using ATP as substrate
[13] = target: Tyrosine-protein kinase JAK2 (Homo sapiens) (UniProt O60674); test: Inhibition of JAK2 at 1 uM
[14] = Antiangiogenic activity in BAEC assessed as inhibition of VEGF-induced survival; type: functional, Bos taurus
P388 [15] = test: Antitumor activity against mouse P388 cells xenografted in DBA/2 mouse assessed as mean survival at 30 mg/kg, po bid for 7 days followed by readministeration after 7 days; type: functional
[16] = Inhibition of MKK at 1 uM
P388 [17] = test: Antitumor activity against mouse P388 cells xenografted in DBA/2 mouse assessed as mean survival at 30 mg/kg, po qd for 7 days followed by readministeration after 7 days; type: functional
P388 [18] = test: Antitumor activity against mouse P388 cells xenografted in DBA/2 mouse assessed as mean survival at 30 mg/kg, po qd (reference value: 14 days); type: functional
A-375 [19] = test: Antitumor activity against human A375 cells xenografted in athymic nude mouse assessed as partial tumor regression at 0.3 mg/kg, po bid
Mus musculus [20] = test: Toxicity in athymic nude mouse bearing human A375 cells assessed as body weight change at 0.1 to 10 mg/kg, po; type: organism-based, A-375; parameters: dose 0.1-10 mg/kg, route oral; conditions: in vivo
A-375 [21] = test: Antitumor activity against human A375 cells xenografted in athymic nude mouse assessed as tumor growth inhibition at 10 mg/kg, po bid measured on day 29 relative to control; type: functional; conditions: A-375, 696 h, read-out: GI
A-375 [22] = test: Antitumor activity against human A375 cells xenografted in athymic nude mouse assessed as complete tumor regression at 0.3 mg/kg, po bid
[23] = Antiangiogenic activity in BAEC assessed as inhibition of VEGF-induced migration; type: functional; conditions: Bos taurus
[24] = Antitumor activity against human U251MG cells xenografted in athymic nude mouse assessed as tumor growth inhibition at 1 mg/kg, po bid measured on day 29 relative to control; type: functional; conditions: U-251, 696 h, read-out: GI
[25] = target: Proto-oncogene tyrosine-protein kinase Src (Homo sapiens, UniProt P12931); test: Inhibition of human cSrc using ATP as substrate
HUVEC [26] = test: Antiangiogenic activity in HUVEC assessed as inhibition of capillary-tube formation by matrigel assay; type: functional, cell-based; conditions: Homo sapiens
[27] = Inhibition of JNK at 1 uM
[28] = target: RAC-alpha serine/threonine-protein kinase (Homo sapiens) (UniProt P31749); test: Inhibition of PKB at 1 uM
[29] = target: Substance-P receptor (Homo sapiens) (UniProt P25103); test: Inhibition of neurokinin NK1 receptor at 10 uM
Aorta = test: Cytotoxicity against rat aortic rings; type: tissue-based
A-375 [30] = test: Antitumor activity against human A375 cells xenografted in athymic nude mouse assessed as complete tumor regression at 3 mg/kg, po bid; type: functional
[31] = target: Muscarinic acetylcholine receptor M4 (Homo sapiens, UniProt P08173); test: Inhibition of muscarinic M4 receptor
[32] = Inhibition of CDK at 1 uM
[33] = Volume of distribution in cynomolgus monkey at 0.5 mg/kg, iv; type: ADME, organism-based, Macaca fascicularis; parameters: dose 0.5 mg/kg, route intravenous; conditions: in vivo
HUVEC [34] = test: Antiangiogenic activity in HUVEC assessed as inhibition of FGF-induced migration; type: functional, cell-based; conditions: Homo sapiens
[35] = Antiangiogenic activity in BAEC assessed as inhibition of FGF-induced migration; type: functional; conditions: Bos taurus
[36] = Metabolic stability in monkey liver S9 fraction assessed as compound remaining after 2 hrs; type: ADME, subcellular, Macaca mulatta; conditions: rhesus monkey, read-out: Stability
[37] = Antitumor activity against human U251MG cells xenografted in athymic nude mouse assessed as partial tumor regression at 1 mg/kg, po bid; type: functional, U-251
[38] = Metabolic stability in rat liver S9 fraction assessed as compound remaining after 2 hrs; type: ADME, subcellular; conditions: read-out: Stability
[39] = target: Epidermal growth factor receptor (Homo sapiens) (UniProt P00533); test: Inhibition of EGFR at 1 uM
[40] = Tmax in cynomolgus monkey at 3 mg/kg, po; type: ADME, organism-based, Macaca fascicularis; parameters: dose 3 mg/kg, route oral; conditions: in vivo
[41] = Antitumor activity against human U251MG cells xenografted in athymic nude mouse assessed as partial tumor regression at 3 mg/kg, po bid; type: functional, U-251
Mus musculus [42] = test: Toxicity in athymic nude mouse bearing human U251MG cells assessed as apparent toxicity at 1 to 30 mg/kg, po; type: organism-based, U-251; parameters: dose 1-30 mg/kg, route oral; conditions: in vivo
A-375 [43] = test: Antitumor activity against human A375 cells xenografted in po dosed athymic nude mouse assessed as tumor growth inhibition bid measured on day 29 relative to control; type: functional; conditions: A-375, po, 696 h, read-out: MED
[44] = Antiangiogenic activity in HMVEC assessed as inhibition of FGF-induced proliferation; type: functional; conditions: Homo sapiens
[45] = Inhibition of IRK at 1 uM
[46] = Inhibition of Mek at 1 uM
Cytochrome P450 2D6 = Cytochrome P450 2D6 (Homo sapiens, UniProt P10635); test: Inhibition of CYP2D6; type: ADME
Cytochrome P450 2C19 = Cytochrome P450 2C19 (Homo sapiens, UniProt P33261); test: Inhibition of CYP2C19; type: ADME
[47] = Tmax in Sprague-Dawley rat at 5 mg/kg, po; type: ADME, organism-based; parameters: dose 5 mg/kg, route oral; conditions: in vivo
[48] = Terminal half life in cynomolgus monkey at 0.5 mg/kg, iv; type: ADME, organism-based, Macaca fascicularis; parameters: dose 0.5 mg/kg, route intravenous; conditions: in vivo, read-out: beta t1/2 (converted)

RAC-alpha serine/threonine-protein kinase (Homo sapiens), sequence (P31749 whole entry): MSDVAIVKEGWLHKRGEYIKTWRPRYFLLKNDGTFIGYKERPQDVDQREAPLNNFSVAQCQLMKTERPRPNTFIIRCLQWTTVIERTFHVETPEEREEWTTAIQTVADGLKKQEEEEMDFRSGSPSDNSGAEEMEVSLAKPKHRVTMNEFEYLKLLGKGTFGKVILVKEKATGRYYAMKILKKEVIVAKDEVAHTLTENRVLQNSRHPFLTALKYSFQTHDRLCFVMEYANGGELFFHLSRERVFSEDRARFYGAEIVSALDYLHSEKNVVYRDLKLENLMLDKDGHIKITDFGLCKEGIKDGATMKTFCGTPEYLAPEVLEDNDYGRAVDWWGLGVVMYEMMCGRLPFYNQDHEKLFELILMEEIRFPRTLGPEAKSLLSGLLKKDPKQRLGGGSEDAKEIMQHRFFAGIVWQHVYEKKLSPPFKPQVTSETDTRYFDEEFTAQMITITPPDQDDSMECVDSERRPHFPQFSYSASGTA
Tyrosine-protein kinase BTK, sequence (Q06187 whole entry): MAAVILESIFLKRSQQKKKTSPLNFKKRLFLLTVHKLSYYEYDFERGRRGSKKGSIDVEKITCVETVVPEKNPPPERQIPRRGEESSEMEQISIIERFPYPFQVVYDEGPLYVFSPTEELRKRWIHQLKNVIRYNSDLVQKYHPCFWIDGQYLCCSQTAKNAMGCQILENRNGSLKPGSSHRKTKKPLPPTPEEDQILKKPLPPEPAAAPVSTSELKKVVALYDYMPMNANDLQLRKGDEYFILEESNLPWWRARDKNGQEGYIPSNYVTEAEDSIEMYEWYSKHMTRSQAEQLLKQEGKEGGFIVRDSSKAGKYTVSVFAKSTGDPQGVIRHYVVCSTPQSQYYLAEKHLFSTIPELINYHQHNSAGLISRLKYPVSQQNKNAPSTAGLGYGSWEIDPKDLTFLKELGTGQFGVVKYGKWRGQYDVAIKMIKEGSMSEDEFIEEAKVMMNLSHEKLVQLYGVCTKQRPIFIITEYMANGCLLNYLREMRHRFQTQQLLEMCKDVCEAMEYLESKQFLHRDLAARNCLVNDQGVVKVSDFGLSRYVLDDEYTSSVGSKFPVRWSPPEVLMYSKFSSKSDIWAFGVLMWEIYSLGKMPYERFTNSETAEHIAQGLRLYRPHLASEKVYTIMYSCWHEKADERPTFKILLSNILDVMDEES
Proto-oncogene tyrosine-protein kinase Src, sequence (P12931 2-536 limits assumed): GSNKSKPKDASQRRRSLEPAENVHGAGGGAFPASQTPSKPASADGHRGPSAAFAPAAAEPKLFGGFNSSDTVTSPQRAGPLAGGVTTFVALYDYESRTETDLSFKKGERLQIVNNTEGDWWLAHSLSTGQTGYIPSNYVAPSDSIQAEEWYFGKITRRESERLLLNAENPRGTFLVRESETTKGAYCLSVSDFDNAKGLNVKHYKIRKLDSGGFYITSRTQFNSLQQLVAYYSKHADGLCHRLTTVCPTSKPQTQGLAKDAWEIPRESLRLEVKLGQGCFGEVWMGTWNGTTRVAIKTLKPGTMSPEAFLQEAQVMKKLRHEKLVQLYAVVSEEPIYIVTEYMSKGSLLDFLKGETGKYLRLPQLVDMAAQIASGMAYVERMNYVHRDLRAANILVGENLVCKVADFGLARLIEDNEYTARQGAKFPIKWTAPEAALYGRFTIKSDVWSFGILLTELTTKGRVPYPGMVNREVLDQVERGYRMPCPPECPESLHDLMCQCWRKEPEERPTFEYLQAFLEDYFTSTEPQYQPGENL
Cytochrome P450 2C19, sequence (P33261 whole entry): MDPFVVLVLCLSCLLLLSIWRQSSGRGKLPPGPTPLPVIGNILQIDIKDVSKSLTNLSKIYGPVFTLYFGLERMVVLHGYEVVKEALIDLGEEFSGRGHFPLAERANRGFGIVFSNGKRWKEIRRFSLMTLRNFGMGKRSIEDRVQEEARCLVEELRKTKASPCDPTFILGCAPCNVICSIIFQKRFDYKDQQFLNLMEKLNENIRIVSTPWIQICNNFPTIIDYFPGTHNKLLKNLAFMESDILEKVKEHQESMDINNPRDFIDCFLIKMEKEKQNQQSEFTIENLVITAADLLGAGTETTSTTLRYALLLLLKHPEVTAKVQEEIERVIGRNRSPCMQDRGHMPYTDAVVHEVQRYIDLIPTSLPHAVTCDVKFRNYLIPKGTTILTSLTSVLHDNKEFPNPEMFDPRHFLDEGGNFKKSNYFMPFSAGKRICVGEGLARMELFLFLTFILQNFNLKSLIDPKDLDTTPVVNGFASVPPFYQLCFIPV
Epidermal growth factor receptor (Homo sapiens), sequence (P00533 whole entry): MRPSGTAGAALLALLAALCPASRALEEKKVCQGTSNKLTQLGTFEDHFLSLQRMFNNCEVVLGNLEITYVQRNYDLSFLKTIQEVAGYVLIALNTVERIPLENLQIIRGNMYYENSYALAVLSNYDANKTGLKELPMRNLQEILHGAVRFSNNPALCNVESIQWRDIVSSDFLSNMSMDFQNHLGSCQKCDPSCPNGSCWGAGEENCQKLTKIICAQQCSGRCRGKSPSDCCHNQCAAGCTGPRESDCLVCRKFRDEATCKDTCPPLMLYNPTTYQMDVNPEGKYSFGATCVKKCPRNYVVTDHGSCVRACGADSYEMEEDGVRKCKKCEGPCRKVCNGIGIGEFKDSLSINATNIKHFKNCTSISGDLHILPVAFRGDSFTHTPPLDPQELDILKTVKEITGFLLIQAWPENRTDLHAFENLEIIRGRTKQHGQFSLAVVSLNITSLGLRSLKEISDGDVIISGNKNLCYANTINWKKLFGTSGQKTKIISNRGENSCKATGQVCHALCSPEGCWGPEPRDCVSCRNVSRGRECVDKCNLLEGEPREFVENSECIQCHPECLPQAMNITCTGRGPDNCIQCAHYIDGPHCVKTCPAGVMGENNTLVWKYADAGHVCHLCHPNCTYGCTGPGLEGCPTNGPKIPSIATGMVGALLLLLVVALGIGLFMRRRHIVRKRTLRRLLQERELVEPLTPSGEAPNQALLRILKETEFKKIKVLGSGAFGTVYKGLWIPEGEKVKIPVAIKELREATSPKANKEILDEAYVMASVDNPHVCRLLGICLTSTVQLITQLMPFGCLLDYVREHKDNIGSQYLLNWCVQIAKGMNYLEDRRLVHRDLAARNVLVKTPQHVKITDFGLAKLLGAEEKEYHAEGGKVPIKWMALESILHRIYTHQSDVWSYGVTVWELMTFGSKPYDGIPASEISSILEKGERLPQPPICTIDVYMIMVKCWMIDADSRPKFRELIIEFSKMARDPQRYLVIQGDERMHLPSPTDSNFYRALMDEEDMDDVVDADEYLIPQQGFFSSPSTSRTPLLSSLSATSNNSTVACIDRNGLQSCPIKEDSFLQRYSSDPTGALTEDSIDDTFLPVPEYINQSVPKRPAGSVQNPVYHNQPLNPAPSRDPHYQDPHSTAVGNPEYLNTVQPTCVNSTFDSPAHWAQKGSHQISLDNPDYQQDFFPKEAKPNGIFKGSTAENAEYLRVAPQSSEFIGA
Macrophage colony-stimulating factor 1 receptor, sequence (P07333 whole entry): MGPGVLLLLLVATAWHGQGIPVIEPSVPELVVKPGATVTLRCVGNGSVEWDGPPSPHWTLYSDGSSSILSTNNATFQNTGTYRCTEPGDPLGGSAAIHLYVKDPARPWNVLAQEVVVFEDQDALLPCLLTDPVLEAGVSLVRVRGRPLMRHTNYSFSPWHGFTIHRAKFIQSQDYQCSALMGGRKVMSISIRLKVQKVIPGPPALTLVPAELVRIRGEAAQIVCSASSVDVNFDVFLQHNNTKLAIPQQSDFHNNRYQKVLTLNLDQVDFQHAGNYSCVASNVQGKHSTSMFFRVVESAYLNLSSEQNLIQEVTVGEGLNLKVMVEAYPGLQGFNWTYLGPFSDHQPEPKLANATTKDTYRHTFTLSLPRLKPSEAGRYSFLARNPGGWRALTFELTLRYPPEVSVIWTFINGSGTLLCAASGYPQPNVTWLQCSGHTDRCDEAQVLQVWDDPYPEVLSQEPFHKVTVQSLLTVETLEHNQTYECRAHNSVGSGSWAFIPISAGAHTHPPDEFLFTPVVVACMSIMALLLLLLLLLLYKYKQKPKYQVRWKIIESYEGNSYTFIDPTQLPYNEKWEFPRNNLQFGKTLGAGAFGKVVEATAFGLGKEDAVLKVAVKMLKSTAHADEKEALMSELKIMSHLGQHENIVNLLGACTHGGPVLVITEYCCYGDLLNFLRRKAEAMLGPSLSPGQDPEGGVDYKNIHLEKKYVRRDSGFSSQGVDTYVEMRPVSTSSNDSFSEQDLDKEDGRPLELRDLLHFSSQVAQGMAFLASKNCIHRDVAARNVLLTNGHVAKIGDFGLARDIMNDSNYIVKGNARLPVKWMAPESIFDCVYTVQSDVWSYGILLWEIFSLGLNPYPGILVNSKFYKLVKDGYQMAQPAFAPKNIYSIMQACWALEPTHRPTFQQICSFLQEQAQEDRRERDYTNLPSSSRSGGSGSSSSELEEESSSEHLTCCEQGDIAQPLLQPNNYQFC
Cytochrome P450 2D6, sequence (P10635 whole entry): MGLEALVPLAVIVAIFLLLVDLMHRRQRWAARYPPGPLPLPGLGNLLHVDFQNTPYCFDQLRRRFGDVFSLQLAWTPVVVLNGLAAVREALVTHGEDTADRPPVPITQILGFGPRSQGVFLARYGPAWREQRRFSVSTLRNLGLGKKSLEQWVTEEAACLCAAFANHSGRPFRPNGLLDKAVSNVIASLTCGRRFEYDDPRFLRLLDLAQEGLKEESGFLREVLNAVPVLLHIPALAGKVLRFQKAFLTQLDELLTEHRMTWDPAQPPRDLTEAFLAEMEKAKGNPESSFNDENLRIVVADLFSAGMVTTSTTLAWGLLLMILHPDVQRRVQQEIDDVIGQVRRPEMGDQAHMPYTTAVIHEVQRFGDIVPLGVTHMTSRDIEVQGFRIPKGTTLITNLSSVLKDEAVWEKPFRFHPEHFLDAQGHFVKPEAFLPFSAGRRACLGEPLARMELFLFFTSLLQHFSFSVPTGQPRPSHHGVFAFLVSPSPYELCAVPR

For `CC(C)Cn1c2ccc(Nc3ncccn3)cc2c2c3c(c4c(c21)CCc1nn(C)cc1-4)C(=O)NC3` [CEP-11981], the MSD (P388 [1]) was 27.5 days, the Papp [2] was > 4 ×10⁻⁶ cm/s and the Activity (A-375 [3]) was 40%. The inhibition in vivo at 1 mg/kg (A-375 [4]) was 73%, the Activity (Mus musculus [5]) was “Non-toxic” and the Activity (A-375 [6]) was 20%. The inhibition [7] was > 80%, the inhibition in vivo at 3 mg/kg [8] was 61% and the bioavailability [9] was 44%. It also gave an IC50 [10] of 78 nM, an IC50 [11] of 93 nM and an IC50 [12] of 89 nM. For the same compound, the inhibition [13] was “Active”, the EC50 [14] was 8 nM and the MSD (P388 [15]) was 25 days. For the same compound, the inhibition [16] was “Active”, the MSD (P388 [17]) was 18.5 days and the MSD (P388 [18]) was 23 days. The Activity (A-375 [19]) was 20%, the Activity (Mus musculus [20]) was “Non-toxic” and the inhibition in vivo at 10 mg/kg (A-375 [21]) was 98%. It also gave an Activity (A-375 [22]) of 10%, an EC50 [23] of 8 nM and an inhibition in vivo at 1 mg/kg [24] of 43%. For the same compound, the IC50 [25] was 37 nM, the EC50 (HUVEC [26]) was 2 nM and the inhibition [27] was “Active”. For the same compound, the inhibition [28] was “Active”, the inhibition [29] was > 80% and the Activity (Aorta) was “Non-toxic”. The Activity (A-375 [30]) was 22%, the Ki [31] was 2900 nM and the inhibition [32] was “Active”. The Vd [33] was 2.6 L/kg, the EC50 (HUVEC [34]) was 8 nM and the EC50 [35] was 8 nM. It also gave a remaining at 2 h [36] of 54%, an Activity [37] of 0% and a remaining at 2 h [38] of 65%. The inhibition [39] was “Active”, the Tmax [40] was 2 h and the Activity [41] was 0%. For the same compound, the Activity (Mus musculus [42]) was “Non-toxic”, the minimal effective dose (A-375 [43]) was 0.3 mg/kg and the EC50 [44] was 8 nM. The inhibition [45] was “Active”, the inhibition [46] was “Active” and the IC50 (Cytochrome P450 2D6) was > 30000 nM. It also gave an IC50 (Cytochrome P450 2C19) of 9000 nM, a Tmax [47] of 2 h and a half-life [48] of 1.7 h.
